According to US20150218516A1, “COMPOSITIONS AND METHODS FOR ENHANCING IMMUNE RESPONSES MEDIATED BY ANTIGEN-PRESENTING CELLS” (The Board of Regents of the University of Nebraska, priority 2007, published 2015):
Non-standard residues stand in square brackets, D forms with d. Residues, ends and D or L forms follow the SMILES beside them.

Columns and labels:
[1] = test system: A-375 cell line (melanoma); format: cell-based, human
Procedure: The tumor peptide antigen tyrosinase is expressed on more than 70% of human melanoma cells that are human leukocyte antigen (HLA) A2 positive. […] The dendritic cells, presumably expressing the tyrosinase epitope, were then cultured with a lymphocyte-enriched cell population which was then cultured with melanoma cells to determine melanoma cell killing using a cytotoxic T lymphocyte assay.

[2] = test system: BEAS-2B epithelial cells
Procedure: (§1) An exemplary in vitro cytotoxicity assay comprises the following steps. Antigen presenting cells, such as dendritic cells, were obtained from bone marrow or blood. Dendritic cells were preferentially differentiated in culture through the addition of IL-4, GM-CSF, and TNFα for 7-10 days. Dendritic cells were then pulsed with peptides for 18 hours. MNCs were also isolated from spleens or blood (e.g., cord or peripheral) and cultured in IL-2 and GM-CSF for 7-10 days for enhanced lymphocyte proliferation. The pulsed dendritic cells were then co-cultured with the lymphocyte-enriched MNCs at a 1:10 ratio for 4 days. Lymphocyte-enriched MNC effector cells were then co-cultured with tumor target cells labeled with the bioactive fluorescent dye Calcein AM for 4 hours. Lysed cells were detected by photometrically measuring the released fluorescent dye.
(§2) Certain prostate carcinomas express prostate-specific membrane antigen (PSMA). […] The fusion peptides were administered to APCs which were subsequently presented to a lymphocyte-enriched population from cord blood as described hereinabove in Example 6. After antigen presentation by pulsed DC in co-culture, CTLs were tested for their ability to lyse three different target cell monolayers in an in vitro cytotoxicity assay. […] The fusion peptides were also administered to APCs which were subsequently presented to a adult peripheral blood-derived CTLs. In vitro cytotoxicity against the human prostate cancer cell line LNCaP was then assessed using the bioactive fluorescent dye calcein AM (FIG. 11D).

[3] = test system: LNCaP cells
Procedure: as §1, §2

[4] = test system: κR(33-52) peptide; assay: Peptide-specific ELISA of serum and protein A-purified antibody from immunized rabbits; format: in vivo
Procedure: Rabbits were immunized s.c. with 500 μg of […]aR (SEQ ID NO: 10) construct in complete Freund's adjuvant (GIBCO, Grand Island, N.Y.) on day 0 followed by booster injections on days 30 and 60 in incomplete Freund's adjuvant. Serum was collected starting 75 days after the initial immunization.
The presence of anti-peptide antibody was determined by using a peptide specific ELISA utilizing the free κR(33-52) peptide as previously described (Morgan et al. (1993) J. Immunol., 151: 377). Anti-κR(33-52) and normal rabbit γ-globulin (RGG) were purified by protein A Sepharose chromatography (Sigma) (Morgan et al. (1993) J. Immunol., 151: 377) prior to use.

[5] = test system: SKRC-1; settings: low G250 expression; cord blood T lymphocytes
Procedure: as §1
(§3) Certain renal cell carcinomas express the tumor antigen G250. […] The fusion peptide was administered to APCs which were subsequently presented for 4 days to a lymphocyte-enriched population from cord blood as described hereinabove in Example 6.

[6] = test system: SKRC-52; settings: cord blood T lymphocytes, dendritic cells exposed to the peptide
Procedure: as §1, §3

[7] = test system: human umbilical artery; assay: Smooth muscle contraction of human umbilical artery; format: cell-based; settings: for EC50: concentration resulting in 50% maximum contraction; for pD2 ± SE: −log EC50 (M), mean ± SE, n=3
Procedure: (§4) Statistical analysis of the values obtained from pharmacologic assays was performed using one-way analysis of variance (ANOVA).

[8] = test system: human PMNs; assay: MPO release from human PMNs; format: cell-based; settings: for pD2 ± SE: −log EC50 (M), mean ± SE, n=3
Procedure: as §4

[9] = biological target: T1, C5aRs on Human PMNs (Homo sapiens, UniProt P21730); assay: Competition assay with 125I-C5a for C5aR binding on intact human PMNs
T1 construct: endogenous in cells; host or cells: intact human PMNs (polymorphonuclear leukocytes)
T1 sequence (P21730 1-350): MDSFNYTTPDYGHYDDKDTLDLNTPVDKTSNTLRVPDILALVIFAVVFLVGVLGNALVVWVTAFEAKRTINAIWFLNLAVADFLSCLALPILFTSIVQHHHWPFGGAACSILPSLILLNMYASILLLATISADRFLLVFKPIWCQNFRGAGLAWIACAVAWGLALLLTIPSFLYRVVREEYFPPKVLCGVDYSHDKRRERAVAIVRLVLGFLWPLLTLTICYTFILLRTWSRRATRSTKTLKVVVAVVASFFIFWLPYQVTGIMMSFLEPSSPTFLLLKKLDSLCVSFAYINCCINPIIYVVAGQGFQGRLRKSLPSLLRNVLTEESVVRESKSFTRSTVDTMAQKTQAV
Procedure: C5a-like agonistic activity was assessed by the ability of the peptides to induce smooth muscle contraction of human umbilical artery and MPO release from human PMNs according to previously published methods (Sanderson et al., 1994, supra; Sanderson et al., J. Med. Chem. 38, 3669, 1995; Finch et al., J. Med. Chem. 40, 877, 1997). Full concentration-response curves were generated for individual peptides and natural C5a in each assay and the EC50 values (the concentration of peptide producing 50% of the maximal response to each peptide) were calculated. pD2 transforms [−log EC50 (M)] were calculated for each concentration-response curve and reported as the mean±SE. Peptide binding affinity to the C5aR was evaluated on intact human PMNs by a competition assay using ^125I-C5a according to previously described methods (Sanderson et al., 1995, supra; Finch et al., 1997, supra). Statistical analysis of the values obtained from pharmacologic assays was performed using one-way analysis of variance (ANOVA).

Compound: CC(C)C[C@H](NC(=O)[C@@H](N)CC(C)C)C(=O)N[C@@H](Cc1c[nH]cn1)C(=O)N[C@@H](CCC(=O)O)C(=O)N[C@H](C(=O)N[C@@H](CC(=O)O)C(=O)N[C@@H](CO)C(=O)N[C@@H](C)C(=O)N[C@H](C(=O)O)C(C)C)[C@@H](C)O [PSMA p1]
- cytotoxicity against A-375 (in words) [1]: not cytotoxic
- cytotoxicity against BEAS-2B (in words) [2]: not cytotoxic
- cytotoxicity against LNCaP (in words) [3]: did not exhibit significant cytotoxicity

Compound: FPGWAEPDSNGSAGSEDAQLYSFKPMPLaR
- antibody concentration at which binding to free κR(33-52) was detectable ([4]; protein A-purified antibody from immunized rabbits): less than 0.1 ng/ml
- ED50 titer ([4]; protein A-purified antibody, multiple bleedings): 1 to 10 ng/mL
- serum titer against free κR(33-52) peptide ([4]; rabbits, 500 μg s.c. in Freund's adjuvant): approximately 10^5

Compound: CSCC[C@H](NC(=O)[C@@H]1CCCN1C(=O)[C@H](CCCCN)NC(=O)[C@H](Cc1ccccc1)NC(=O)[C@H](CO)NC(=O)[C@H](Cc1ccc(O)cc1)NC(=O)[C@H](CCCNC(=N)N)NC(=O)[C@H](CCCNC(=N)N)NC(=O)[C@@H](NC(=O)[C@H](CCCNC(=N)N)NC(=O)[C@H](C)NC(=O)[C@H](Cc1ccccc1)NC(=O)[C@H](C)NC(=O)[C@@H](NC(=O)[C@H](CO)NC(=O)[C@H](CC(C)C)NC(=O)[C@@H](N)Cc1c[nH]cn1)[C@@H](C)O)C(C)C)C(=O)N1CCC[C@H]1C(=O)N[C@@H](CC(C)C)C(=O)N[C@H](C)C(=O)N[C@@H](CCCNC(=N)N)C(=O)O (H-HLSTAFARVRRYSFKPMPL[dA]R-OH)
- cytotoxicity against SKRC-1 (in words) [5]: exhibited cytotoxicity
- cytotoxicity against SKRC-52 (in words) [6]: significant cytotoxicity

Compound: CSCC[C@H](NC(=O)[C@@H]1CCCN1C(=O)[C@H](CCCCN)NC(=O)[C@H](Cc1ccccc1)NC(=O)[C@H](CO)NC(=O)[C@H](Cc1ccc(O)cc1)NC(=O)[C@@H](NC(=O)[C@H](CCCNC(=N)N)NC(=O)[C@H](C)NC(=O)[C@H](Cc1ccccc1)NC(=O)[C@H](C)NC(=O)[C@@H](NC(=O)[C@H](CO)NC(=O)[C@H](CC(C)C)NC(=O)[C@@H](N)Cc1c[nH]cn1)[C@@H](C)O)C(C)C)C(=O)N1CCC[C@H]1C(=O)N[C@@H](CC(C)C)C(=O)N[C@H](C)C(=O)N[C@@H](CCCNC(=N)N)C(=O)O (H-HLSTAFARVYSFKPMPL[dA]R-OH)
- cytotoxicity against SKRC-1 (in words) [5]: exhibited cytotoxicity
- cytotoxicity against SKRC-52 (in words) [6]: significant cytotoxicity

Compound: CC[C@H](C)[C@H](NC(=O)[C@H](CCCNC(=N)N)NC(=O)[C@H](CCCNC(=N)N)NC(=O)[C@H](CCCNC(=N)N)NC(=O)[C@@H](C)NC(=O)[C@H](CC(C)C)NC(=O)[C@@H]1CCCN1C(=O)[C@H](CCSC)NC(=O)[C@@H]1CCCN1C(=O)[C@H](CCCCN)NC(=O)[C@H](Cc1ccccc1)NC(=O)[C@H](CO)NC(=O)[C@@H](N)Cc1ccc(O)cc1)C(=O)N1CCC[C@H]1C(=O)N[C@@H](CCC(N)=O)C(=O)N[C@@H](CO)C(=O)N[C@@H](CC(C)C)C(=O)N[C@@H](CC(=O)O)C(=O)N[C@@H](CO)C(=O)N[C@@H](Cc1c[nH]c2ccccc12)C(=O)N[C@@H](Cc1c[nH]c2ccccc12)C(=O)N[C@H](C(=O)N[C@@H](CO)C(=O)N[C@@H](CC(C)C)C(=O)O)[C@@H](C)O
- potency in umbilical artery contraction (in words) [7]: significantly less potent
- EC50 [7]: 39.4 µM
- pD2 ± SE [7]: 4.41 ± 0.06
- MPO release from PMNs (in words) [8]: inactive
- pD2 ± SE [8]: >3
- binding to the C5aR (in words) [9]: bound poorly

Compound: CC[C@H](C)[C@H](N)C(=O)N1CCC[C@H]1C(=O)N[C@@H](CCC(N)=O)C(=O)N[C@@H](CO)C(=O)N[C@@H](CC(C)C)C(=O)N[C@@H](CC(=O)O)C(=O)N[C@@H](CO)C(=O)N[C@@H](Cc1c[nH]c2ccccc12)C(=O)N[C@@H](Cc1c[nH]c2ccccc12)C(=O)N[C@H](C(=O)N[C@@H](CO)C(=O)N[C@@H](CC(C)C)C(=O)N[C@@H](CCCNC(=N)N)C(=O)N[C@@H](CCCNC(=N)N)C(=O)N[C@@H](Cc1ccc(O)cc1)C(=O)N[C@@H](CO)C(=O)N[C@@H](Cc1ccccc1)C(=O)N[C@@H](CCCCN)C(=O)N1CCC[C@H]1C(=O)N[C@@H](CCSC)C(=O)N1CCC[C@H]1C(=O)N[C@@H](CC(C)C)C(=O)N[C@H](C)C(=O)N[C@@H](CCCNC(=N)N)C(=O)NCC(=O)O)[C@@H](C)O (H-IPQSLDSWWTSLRRYSFKPMPL[dA]RG-OH)
- potency in umbilical artery contraction (in words) [7]: significantly less potent
- EC50 [7]: 6.78 µM
- pD2 ± SE [7]: 5.17 ± 0.13
- MPO release from PMNs (in words) [8]: unable to induce a full response
- EC50 ([8]; 50% maximum release of myeloperoxidase): 2.56 µM
- pD2 ± SE [8]: 5.59 ± 0.28
- binding to the C5aR (in words) [9]: significantly less affinity

Compound: CC[C@H](C)[C@H](NC(=O)[C@H](CC(=O)O)NC(=O)[C@H](Cc1ccccc1)NC(=O)[C@H](CC(C)C)NC(=O)[C@H](C)N)C(=O)N[C@@H](CCC(=O)O)C(=O)N[C@@H](CO)C(=O)N[C@@H](CCCCN)C(=O)N[C@H](C(=O)O)C(C)C [PSMA p2]
- cytotoxicity against A-375 (in words) [1]: not cytotoxic
- cytotoxicity against BEAS-2B (in words) [2]: not cytotoxic
- cytotoxicity against LNCaP (in words) [3]: did not exhibit significant cytotoxicity
